From patent US11911356B2, “Regulation of mutant TERT by BRAF V600E/map kinase pathway through FOS/GABP in human cancer” (THE JOHNS HOPKINS UNIVERSITY, priority 2017, dated 2024)

Columns and labels:
[1] = system: MEK and ERK phosphorylation; settings: wild-type BRAF cells; previous finding (refs 28, 29); cited from earlier work
[2] = system: TERT promoter; test: TERT promoter luciferase reporter assay in K1 cells; assay type: cell-based, human; settings: K1 cells harboring BRAF V600E; PLX4032 0.5 uM
Method: FIG. 2A-2G. BRAF V600E/MAPK pathway regulated TERT expression. (FIG. 2A) TERT expression was analyzed by qRT-PCR in cells treated with 0.5 uM PLX4032 or 0.2 uM AZD6244 for 24 hours (upper panel). The corresponding levels of phosphorylated ERK (p-ERK), total ERK (t-ERK), and beta-actin were detected by Western blotting (lower panel). The relative TERT mRNA expression levels were normalized to the DMSO control group. (FIG. 2B) Luciferase reporting assay of TERT promoter activities in K1 cells treated with DMSO or PLX4032 (0.5 uM). (FIG. 2C, 2D) Specific shRNA against BRAF were used to knock down BRAF in thyroid cancer cell lines BCPAP and K1 and melanoma cell line A375. Scramble shRNA was used as control. Cells were then subjected to Western blotting (FIG. 2C) and qRT-PCR (FIG. 2D). […]
For promoter activity assay, cells were seeded in triplicate into a 24-well plate and then transfected with 300 ng pGL3 plasmids containing the TERT, GAPBA, or GABPB promoter, together with 12 ng Renilla luciferase (pRL-TK) plasmid (normalizing control) using Lipofectamine 3000 (Invitrogen). At 24 hours after the transfection, cells were lysed and luciferase activities were measured using the Dual-Luciferase Reporter Assay System (Promega). Results were presented as relative luciferase activities, which were obtained by dividing firefly luciferase values with Renilla luciferase values for each set of reading.

[3] = system: TERT expression; test: TERT expression by qRT-PCR in human cancer cell lines treated with inhibitors; assay type: cell-based; settings: for TERT expression: 0.5 uM PLX4032, 24 hours
Method: FIG. 2A-2G. BRAF V600E/MAPK pathway regulated TERT expression. (FIG. 2A) TERT expression was analyzed by qRT-PCR in cells treated with 0.5 uM PLX4032 or 0.2 uM AZD6244 for 24 hours (upper panel). The corresponding levels of phosphorylated ERK (p-ERK), total ERK (t-ERK), and beta-actin were detected by Western blotting (lower panel). The relative TERT mRNA expression levels were normalized to the DMSO control group. (FIG. 2B) Luciferase reporting assay of TERT promoter activities in K1 cells treated with DMSO or PLX4032 (0.5 uM). (FIG. 2C, 2D) Specific shRNA against BRAF were used to knock down BRAF in thyroid cancer cell lines BCPAP and K1 and melanoma cell line A375. Scramble shRNA was used as control. Cells were then subjected to Western blotting (FIG. 2C) and qRT-PCR (FIG. 2D). (FIG. 2E) Sequencing of the BRAF exon-15 in the parental and heterozygous BRAF-V600E knock-in SW48 cells. BRAF V600E was knocked in on one allele of BRAF by rAAV technology through homologous recombination and Cre recombinase of the Neo cassette. (FIG. 2F) Western blotting analyses of phosphorylation of ERK (p-ERK), total ERK (t-ERK), BRAF, and beta-actin in the parental and BRAF-V600E knock-in SW48 cells. (FIG. 2G) TERT promoter luciferase reporter assay in SW48 cells with/without BRAF V600E knock-in. **P<0.01, ***P<0.001, by 2-tailed Student's t test. P values are for the comparison of the indicated condition with DMSO (FIG. 2B), scramble (FIG. 2D), or BRAF-WT groups (FIG. 2G). All the values represent the average standard deviation (SD) of triplicate samples from a typical experiment. All the experiments were performed three times with similar results.
FIG. 3A-3C. MYC regulated TERT expression in a TERT promoter mutation-independent manner. (FIG. 3A) The four indicated cancer cell lines harboring BRAF V600E mutation were treated with 0.5 uM PLX4032 and/or 10 nM MYC-specific siRNA (siMYC) for 24 hours, which were then subjected to Western blotting (upper panel) and qRT-PCR (lower panel). The relative TERT mRNA expression was normalized to the control group. (FIG. 3B, 3C) Parental and BRAF V600E knock-in SW48 cells were treated with control siRNA (siControl) or MYC-specific siRNA (siMYC, 10 nM) for 48 h, followed by Western blotting (FIG. 3B) and luciferase reporter assays (FIG. 3C). *P<0.05, **P<0.01, ***P<0.001, by 2-tailed Student's t test. n.s., not significant. All the values represent the average standard deviation (SD) of triplicate samples from a typical experiment. Similar results were obtained in two additional independent experiments.
FIG. 9A-9B. Summarized effects of PLX4032 (FIG. 9A) and AZD6244 (FIG. 9B) on TERT mRNA expression. Each bar represents the average+SD of the cells with the same genotypes as follows: BRAF-mut and TERT-mut cell lines: BCPAP, K1, OCUT1, A375, and M14; BRAF-mut and TERT-wt cell lines: SK-MEL-1, SK-MEL-3, and RKO; BRAF-wt and TERT-mut cell lines: TPC1, KAT18, C643, CHL-1, SK-MEL-2, and Mewo; BRAF-wt and TERT-wt cell lines: FB1, WRO, and HTORI3. Compared with the corresponding control of DMSO, **P<0.01, ***P<0.001, by independent t-test.
The BRAF V600E-specific inhibitor PLX4032 (#S1267) and the MEK1 inhibitor AZD6244 (#S1008) were purchased from Selleck Chemicals (Houston, TX), dissolved in DMSO with a stock concentration of 10 mM and stored at −20° C. PLX4032 and AZD6244 were used to treat cells for 24 hours at 0.5 μM and 0.2 μM, respectively, where indicated in the manuscript. DMSO was used as the vehicle control.
Total RNA was extracted from cultured cells using the TRIzol reagent (#15596-018; Ambion, Life Technologies, Carlsbad, CA) and reverse-transcribed to cDNA using the SuperScript III First-Strand Synthesis System (#18080-051; Invitrogen, Life Technologies, Carlsbad, CA). Gene expression was analyzed in triplicate using FastStart Universal SYBR Green Master with ROX (#04913850001; Roche Applied Science, Indianapolis, IN) on the Applied Biosystems 7900HT Fast Real-Time PCR System. […]

For `CCCS(=O)(=O)Nc1ccc(F)c(C(=O)c2c[nH]c3ncc(-c4ccc(Cl)cc4)cc23)c1F` [PLX4032], the “MEK and ERK phosphorylation” value [1] is listed as “induced MEK and ERK phosphorylation”, the “activities of the mutated TERT promoter (C228T or C250T)” value [2] is listed as “dramatically reduced” and the “activity of the wild-type TERT promoter” value [2] is listed as “limited effect”. For the same compound, the TERT expression ([3]; RKO and SK-MEL-3 cells, wild-type TERT promoter) was “moderate level”, the TERT expression ([3]; all the cells harboring BRAF mutation (FIG. 3A)) was “decreased TERT expression” and the “TERT expression after siRNA knockdown of MYC” value ([3]; cells harboring TERT promoter mutations, 0.5 uM PLX4032 with 10 nM siMYC, 24 hours) was “could further inhibit TERT expression”. The TERT expression ([3]; cells harboring both BRAF V600E and TERT promoter mutations) was “dramatically inhibited TERT expression”, the TERT expression ([3]; cells harboring the wild-type TERT promoter) was “limited effect” and the TERT expression ([3]; cells harboring wild-type BRAF) was “no inhibitory effect”. For the same compound, the TERT expression ([3]; wild-type BRAF cell lines, especially TERT mutant cells (KAT18, C643 and CHL-1)) was “increase in TERT expression”.
